Assay [1] concerns the target T1, AChE (EC 3.1.1.7) from electric eel (Electrophorus electricus, UniProt O42275).
T1 construct: purchased Sigma-Aldrich
Description: biochemical. Particulars: for inhibition at 100 µM: read-out: AChE IR (inhibitory rate); for SI (selectivity index = AChE IC50/BChE IC50): eeAChE IC50 / eqBChE IC50. It counts as biochemical. The procedure:
(§1) The data were expressed as IC50 values (Table 1).
(§2) The inhibitory activities of the target compounds towards AChE (from Electrophorus electricus (electric eeAChE, Sigma-Aldrich) and horse serum BChE (eqBChE, Sigma-Aldrich) or human AChE – huAChE; human BuChE – huBuChE (huAChE, huBuChE, Sigma-Aldrich) were measured by Ellman’s method. In 96-well plates, a mixture of phosphate buffer (0.1 M, pH 8.0, […]), 5,5′-dithiobis-2-nitrobenzoic acid (DTNB, 60 µL), acetylcholinestrase or butyrylcholinesterase (20 µL, 5 IU/mL) and different concentration of the compound solution (30 µL) was pre-incubated for 5 min followed by the addition of the substrate (acetylthiocholine iodide or butyrylthiocholine iodide, 20 µL). […] The measurement of each concentration for each compound was detected in triplicate. GraphPad Prism 6.0 (GraphPad Software, Inc., La Jolla, CA) was used for data processing. The inhibition curve was fitted by plotting percentage enzyme activity (100% for the reference) versus the logarithm of the concentration of tested compound. The half-maximal inhibitory concentration (IC50) values were calculated according to the inhibition curve and the data were shown in the layout of mean ± SEM by GraphPad Prism 6.0.

For assay [2], the target named is T2, BChE (EC 3.1.1.8) from horse serum (Equus caballus, UniProt P81908).
T2 construct: horse serum BChE (eqBChE, Sigma-Aldrich); purchased Sigma-Aldrich; host or cells: horse serum
Description: biochemical. Particulars: for inhibition at 100 µM: compound at 100 μM, read-out: BChE IR (inhibitory rate). The procedure:
as §1, §2

[3] abbreviates: eeAChE, mean ± SEM of triplicate independent experiments, read-out: AChE IC50.
Setting [4] is: eqBChE, mean ± SEM of triplicate independent experiments, read-out: BChE IC50.

Read-outs that look alike come from different tables or passages of the source.

T2 sequence (P81908 whole entry): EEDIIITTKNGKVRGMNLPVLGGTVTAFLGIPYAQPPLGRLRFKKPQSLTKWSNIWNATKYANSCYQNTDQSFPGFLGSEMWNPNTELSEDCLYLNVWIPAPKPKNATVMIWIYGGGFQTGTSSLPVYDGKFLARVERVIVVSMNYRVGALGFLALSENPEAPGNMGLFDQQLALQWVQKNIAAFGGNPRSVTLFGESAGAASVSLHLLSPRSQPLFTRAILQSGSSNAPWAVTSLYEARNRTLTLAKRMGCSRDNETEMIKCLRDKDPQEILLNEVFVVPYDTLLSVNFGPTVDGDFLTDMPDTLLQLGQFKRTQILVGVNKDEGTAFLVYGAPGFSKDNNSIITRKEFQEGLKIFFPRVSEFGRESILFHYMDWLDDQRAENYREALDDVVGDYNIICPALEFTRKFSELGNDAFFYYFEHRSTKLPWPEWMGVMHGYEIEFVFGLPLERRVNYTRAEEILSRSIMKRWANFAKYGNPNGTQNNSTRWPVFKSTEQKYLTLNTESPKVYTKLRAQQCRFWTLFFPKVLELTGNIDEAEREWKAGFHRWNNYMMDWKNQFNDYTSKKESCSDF
T1 sequence (O42275 24-633): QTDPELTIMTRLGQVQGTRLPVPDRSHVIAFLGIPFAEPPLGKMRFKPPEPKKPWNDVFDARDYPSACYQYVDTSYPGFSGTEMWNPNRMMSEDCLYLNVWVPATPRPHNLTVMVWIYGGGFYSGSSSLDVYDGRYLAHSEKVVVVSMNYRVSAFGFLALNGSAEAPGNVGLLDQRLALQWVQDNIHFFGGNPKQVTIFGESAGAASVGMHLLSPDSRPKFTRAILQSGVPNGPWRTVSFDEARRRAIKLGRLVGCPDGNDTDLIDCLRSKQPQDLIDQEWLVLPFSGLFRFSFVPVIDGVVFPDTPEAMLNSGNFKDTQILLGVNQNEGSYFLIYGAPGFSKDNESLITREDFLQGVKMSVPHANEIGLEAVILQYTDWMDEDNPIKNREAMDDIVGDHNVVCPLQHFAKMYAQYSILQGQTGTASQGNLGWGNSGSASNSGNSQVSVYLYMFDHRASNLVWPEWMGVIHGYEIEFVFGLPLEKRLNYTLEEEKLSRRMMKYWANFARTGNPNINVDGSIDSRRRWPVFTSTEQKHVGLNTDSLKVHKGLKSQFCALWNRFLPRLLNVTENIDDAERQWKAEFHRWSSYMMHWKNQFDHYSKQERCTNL

For orientation: IC50 means the point on the concentration scale where inhibition reaches its midpoint. In the case of `Cn1c(=O)n(C)c2cc(C(=O)NCC3CCN(Cc4ccccc4)CC3)ccc21` [Compound 9a, N-((1-benzylpiperidin-4-yl)methyl)-1,3-dimethyl-2-oxo-2,3-dihydro-1H-benzo[d]imidazole-5-carboxamide], the half-inhibitory concentration (IC50) in assay [1] (setting [3]) worked out at 3.14 ± 1.12 µM. In assay [2] (eqBChE), the inhibition at 100 µM turned out to be 43.9%.

Regarding `Cc1ccccc1CN1CCC(CNC(=O)c2ccc3c(c2)n(C)c(=O)n3C)CC1` [Compound 9b, 1,3-dimethyl-N-((1–(2-methylbenzyl)piperidin-4-yl)methyl)-2-oxo-2,3-dihydro-1H-benzo[d]imidazole-5-carboxamide], the IC50 in assay [1] (setting [3]) was found to be 8.08 ± 2.66 µM. For the same compound, the inhibition at 100 µM in assay [2] (eqBChE) is 41.4%.

For `Cc1cccc(CN2CCC(CNC(=O)c3ccc4c(c3)n(C)c(=O)n4C)CC2)c1` [Compound 9c, 1,3-dimethyl-N-((1–(3-methylbenzyl)piperidin-4-yl)methyl)-2-oxo-2,3-dihydro-1H-benzo[d]imidazole-5-carboxamide], the IC50 in assay [1] (setting [3]) stood at 3.83 ± 2.04 µM. In assay [2] (eqBChE), the inhibition at 100 µM was determined as 44%.

`Cc1ccc(CN2CCC(CNC(=O)c3ccc4c(c3)n(C)c(=O)n4C)CC2)cc1` [Compound 9d, 1,3-dimethyl-N-((1–(4-methylbenzyl)piperidin-4-yl)methyl)-2-oxo-2,3-dihydro-1H-benzo[d]imidazole-5-carboxamide]: the concentration for half-maximal inhibition (IC50) in assay [1] (setting [3]) was determined as 25.7 ± 12.3 µM. In assay [2] (eqBChE), the inhibition at 100 µM stood at 37.8%.

Turning to `Cc1ccc(CN2CCC(CNC(=O)c3ccc4c(c3)n(C)c(=O)n4C)CC2)cc1C` [Compound 9e, N-((1–(3,4-dimethylbenzyl)piperidin-4-yl)methyl)-1,3-dimethyl-2-oxo-2,3-dihydro-1H-benzo[d]imidazole-5-carboxamide], in assay [1] (setting [3]), the IC50 was 9.97 ± 2.52 µM. In addition, the inhibition at 100 µM in assay [2] (eqBChE) came to 30.8%.

Regarding `COc1cccc(CN2CCC(CNC(=O)c3ccc4c(c3)n(C)c(=O)n4C)CC2)c1` [Compound 9f, N-((1–(3-methoxybenzyl)piperidin-4-yl)methyl)-1,3-dimethyl-2-oxo-2,3-dihydro-1H-benzo[d]imidazole-5-carboxamide], the inhibition at 100 µM in assay [1] amounted to 33.5%; in assay [2] (eqBChE), 25%.

Turning to `COc1ccc(CN2CCC(CNC(=O)c3ccc4c(c3)n(C)c(=O)n4C)CC2)cc1` [Compound 9g, N-((1–(4-methoxybenzyl)piperidin-4-yl)methyl)-1,3-dimethyl-2-oxo-2,3-dihydro-1H-benzo[d]imidazole-5-carboxamide], in assay [1] (setting [3]), the IC50 amounted to 5.17 ± 2.25 µM. Further, the inhibition at 100 µM in assay [2] (eqBChE) was found to be 41.5%.

For `Cn1c(=O)n(C)c2cc(C(=O)NCC3CCN(Cc4ccccc4F)CC3)ccc21` [Compound 9h, N-((1–(2-fluorobenzyl)piperidin-4-yl)methyl)-1,3-dimethyl-2-oxo-2,3-dihydro-1H-benzo[d]imidazole-5-carboxamide], the IC50 in assay [1] (setting [3]) worked out at 16.2 ± 4.34 µM. In addition, the inhibition at 100 µM in assay [2] (eqBChE) worked out at 30%.

Consider `Cn1c(=O)n(C)c2cc(C(=O)NCC3CCN(Cc4cccc(F)c4)CC3)ccc21` [Compound 9i, N-((1–(3-fluorobenzyl)piperidin-4-yl)methyl)-1,3-dimethyl-2-oxo-2,3-dihydro-1H-benzo[d]imidazole-5-carboxamide], for which the IC50 in assay [1] (setting [3]) was determined as 2.93 ± 1.96 µM; in assay [2] (setting [4]) it was 95.1 ± 59.3 µM.

Turning to `Cn1c(=O)n(C)c2cc(C(=O)NCC3CCN(Cc4ccc(F)cc4)CC3)ccc21` [Compound 9j, N-((1–(4-fluorobenzyl)piperidin-4-yl)methyl)-1,3-dimethyl-2-oxo-2,3-dihydro-1H-benzo[d]imidazole-5-carboxamide], the “SI (selectivity index = AChE IC50/BChE IC50)” value in assay [1] was 1.27. Also, the concentration for half-maximal inhibition (IC50) in assay [1] (setting [3]) was 4.7 ± 2.01 µM; in assay [2] (setting [4]) it was 3.71 ± 1.88 µM.

As to `Cn1c(=O)n(C)c2cc(C(=O)NCC3CCN(Cc4ccccc4Cl)CC3)ccc21` [Compound 9k, N-((1–(2-chlorobenzyl)piperidin-4-yl)methyl)-1,3-dimethyl-2-oxo-2,3-dihydro-1H-benzo[d]imidazole-5-carboxamide], in assay [1] (setting [3]), the IC50 was found to be 3.92 ± 1.2 µM. For the same compound, in assay [2] (eqBChE), the inhibition at 100 µM is 46.5%.

`Cn1c(=O)n(C)c2cc(C(=O)NCC3CCN(Cc4cccc(Cl)c4)CC3)ccc21` [Compound 9l, N-((1–(3-chlorobenzyl)piperidin-4-yl)methyl)-1,3-dimethyl-2-oxo-2,3-dihydro-1H-benzo[d]imidazole-5-carboxamide]: in assay [1] (setting [3]), the 50% inhibitory concentration (IC50) stood at 6 ± 3.31 µM. Moreover, in assay [2] (eqBChE), the inhibition at 100 µM amounted to 36.9%.

Turning to `Cn1c(=O)n(C)c2cc(C(=O)NCC3CCN(Cc4ccc(Cl)cc4)CC3)ccc21` [Compound 9m, N-((1–(4-chlorobenzyl)piperidin-4-yl)methyl)-1,3-dimethyl-2-oxo-2,3-dihydro-1H-benzo[d]imidazole-5-carboxamide], the “fold increase of inhibitory activity towards AChE compared to 9a” value in assay [1] (eeAChE) was 15 fold. In addition, the IC50 in assay [1] (setting [3]) turned out to be 0.21 ± 0.03 µM. Also, the inhibition at 100 µM in assay [2] (eqBChE) came to 49.9%.

Consider `Cn1c(=O)n(C)c2cc(C(=O)NCC3CCN(Cc4ccccc4Br)CC3)ccc21` [Compound 9n, N-((1–(2-bromobenzyl)piperidin-4-yl)methyl)-1,3-dimethyl-2-oxo-2,3-dihydro-1H-benzo[d]imidazole-5-carboxamide], for which the IC50 in assay [1] (setting [3]) came to 8.87 ± 4.56 µM. The inhibition at 100 µM in assay [2] (eqBChE) worked out at 43.5%.

As for `Cn1c(=O)n(C)c2cc(C(=O)NCC3CCN(Cc4cccc(Br)c4)CC3)ccc21` [Compound 9o, N-((1–(3-bromobenzyl)piperidin-4-yl)methyl)-1,3-dimethyl-2-oxo-2,3-dihydro-1H-benzo[d]imidazole-5-carboxamide], the 50% inhibitory concentration (IC50) in assay [1] (setting [3]) was 3.69 ± 1.83 µM. Moreover, the inhibition at 100 µM in assay [2] (eqBChE) was found to be 42.8%.

For the compound `Cn1c(=O)n(C)c2cc(C(=O)NCC3CCN(Cc4ccc(Br)cc4)CC3)ccc21` [Compound 9p, N-((1–(4-bromobenzyl)piperidin-4-yl)methyl)-1,3-dimethyl-2-oxo-2,3-dihydro-1H-benzo[d]imidazole-5-carboxamide], in assay [1] (setting [3]), the IC50 came to 11.1 ± 6.42 µM. For the same compound, the inhibition at 100 µM in assay [2] (eqBChE) is 38.5%.

Turning to `COc1ccc(CN2CCC(CNC(=O)c3ccc4[nH]ccc4c3)CC2)cc1` [Compound 11a, N-((1–(4-methoxybenzyl)piperidin-4-yl)methyl)-1H-indole-5-carboxamide], the values for the IC50 in assay [1] and in assay [2] were 38.1 ± 12.8 µM and 10.8 ± 5.55 µM, respectively. Also, the “SI (selectivity index = AChE IC50/BChE IC50)” value in assay [1] is on record as 3.54.

For the compound `COc1ccc(CN2CCC(CNC(=O)c3ccc4[nH]ncc4c3)CC2)cc1` [Compound 11b, N-((1–(4-methoxybenzyl)piperidin-4-yl)methyl)-1H-indazole-5-carboxamide], the results for the inhibition at 100 µM in assay [1] and in assay [2] (eqBChE) were 48.6% and 44.6%, respectively.

Regarding `O=C(NCC1CCN(Cc2ccccc2Cl)CC1)c1ccc2[nH]ncc2c1` [Compound 11c, N-((1–(2-chlorobenzyl)piperidin-4-yl)methyl)-1H-indazole-5-carboxamide], the IC50 is 5.44 ± 2.22 µM in assay [1] and 21.3 ± 5 µM in assay [2]. Also, in assay [1], the “SI (selectivity index = AChE IC50/BChE IC50)” value was determined as 0.26.

As for `COc1ccc(CN2CCC(CNC(=O)c3ccc4[nH]cnc4c3)CC2)cc1` [Compound 11d, N-((1–(4-methoxybenzyl)piperidin-4-yl)methyl)-1H-benzo[d]imidazole-5-carboxamide], the inhibition at 100 µM in assay [1] is 18.8%; in assay [2] (eqBChE) it was 16.5%.

Take `O=C(NCC1CCN(Cc2ccccc2Cl)CC1)c1ccc2[nH]cnc2c1` [Compound 11e, N-((1–(2-chlorobenzyl)piperidin-4-yl)methyl)-1H-benzo[d]imidazole-5-carboxamide]: the IC50 in assay [1] was determined as 7.48 ± 3.1 µM. Besides, in assay [2] (eqBChE), the inhibition at 100 µM was determined as 42.1%.

The values are drawn from paper PMC6968383, “Design, synthesis, in vitro and in vivo evaluation of benzylpiperidine-linked 1,3-dimethylbenzimidazolinones as cholinesterase inhibitors against Alzheimer’s disease” (Journal of Enzyme Inhibition and Medicinal Chemistry, 2019).
